Source: patent US7767666B2, “Butyl and butynyl benzyl amine compounds” (Janssen Pharmaceutica NV, priority 2006, dated 2010)

Legend:
human SERT = target: T1, human SERT (Homo sapiens, UniProt P31645); assay: Human SERT 3H-citalopram binding; conditions: HEK293 membranes expressing the human SERT, rt 1 h
T1 construct: expressed in transfected cells; host or cells: HEK293 membranes
Procedure: Homogenized HEK293 (Human Embryonic Kidney) membranes expressing the human SERT were incubated with ^3H-citalopram (SERT) at rt for 1 h in 50 mM Tris, 120 mM NaCl, 5 mM KCl (pH 7.4). […] The membranes were washed and the radioactivity was counted as above.

Rat SERT = target: T2, Rat SERT (Rattus norvegicus, UniProt P31652); assay: Rat brain SERT [3H]-citalopram binding; conditions: rat brain membranes, 0.6 nM [3H]-Citalopram, 60 min at 25° C.
T2 construct: A rat brain without cerebellum (Zivic Laboratories, Inc.—Pittsburgh, Pa.) was homogenized; tissue Zivic Laboratories, Inc; host or cells: rat brain without cerebellum, membrane preparation
T2 sequence (P31652 whole entry): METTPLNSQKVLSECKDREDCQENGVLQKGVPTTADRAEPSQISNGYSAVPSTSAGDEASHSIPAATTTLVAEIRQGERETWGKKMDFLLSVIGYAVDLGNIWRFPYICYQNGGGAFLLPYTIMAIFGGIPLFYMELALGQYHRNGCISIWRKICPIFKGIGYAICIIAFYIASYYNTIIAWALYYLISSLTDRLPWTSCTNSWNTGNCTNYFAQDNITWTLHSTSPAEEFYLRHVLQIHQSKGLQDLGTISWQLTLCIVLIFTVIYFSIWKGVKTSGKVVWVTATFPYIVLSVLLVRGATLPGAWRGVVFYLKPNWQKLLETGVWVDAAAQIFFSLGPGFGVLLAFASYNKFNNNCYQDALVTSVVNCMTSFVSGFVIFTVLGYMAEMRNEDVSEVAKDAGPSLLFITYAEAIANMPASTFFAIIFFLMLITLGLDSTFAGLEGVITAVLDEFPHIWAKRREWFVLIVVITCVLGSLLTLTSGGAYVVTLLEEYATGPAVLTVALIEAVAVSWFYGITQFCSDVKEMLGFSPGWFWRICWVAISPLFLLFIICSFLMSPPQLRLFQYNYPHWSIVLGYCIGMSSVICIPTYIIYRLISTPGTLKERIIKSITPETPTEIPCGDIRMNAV
Procedure: The supernatant was removed and re-centrifuged at 15,000 rpm for 30 min. […] Membranes were incubated with 0.6 nM [^3H]-Citalopram plus/minus test compounds for 60 min at 25° C. and harvested by rapid filtration over GF/C glass fiber filters (pretreated with 0.3% polyethylenimine) followed by four washes with ice-cold buffer.

human H3 receptor [1] = target: T3, human H3 receptor (Homo sapiens, UniProt Q9Y5N1); assay: H3 receptor binding; conditions: cloned human H3 receptor stably expressed in SK-N-MC cells
T3 construct: expressed in transfected cells
T3 sequence (Q9Y5N1 whole entry): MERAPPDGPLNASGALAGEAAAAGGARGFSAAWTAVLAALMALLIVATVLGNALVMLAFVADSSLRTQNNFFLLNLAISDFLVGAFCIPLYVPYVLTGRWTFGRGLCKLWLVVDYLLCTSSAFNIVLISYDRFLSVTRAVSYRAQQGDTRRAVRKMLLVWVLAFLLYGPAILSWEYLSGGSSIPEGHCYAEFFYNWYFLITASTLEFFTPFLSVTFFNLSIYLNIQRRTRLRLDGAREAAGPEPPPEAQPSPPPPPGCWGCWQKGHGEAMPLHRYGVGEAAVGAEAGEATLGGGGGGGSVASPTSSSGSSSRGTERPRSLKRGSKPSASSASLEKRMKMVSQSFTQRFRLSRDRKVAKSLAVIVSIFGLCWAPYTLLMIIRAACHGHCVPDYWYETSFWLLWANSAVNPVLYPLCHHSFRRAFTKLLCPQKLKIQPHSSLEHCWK

human H3 receptor [2] = target: T3, human H3 receptor; assay: Cyclic AMP accumulation (β-galactosidase reporter); format: cell-based; conditions: for pA2: SK-N-MC cells expressing human H3 receptor and reporter, histamine agonist, forskolin 5 μM, Schild regression of pEC50 values
Procedure: Sublines of SK—N-MC cells were created that expressed a reporter construct and the human H3 receptor. The reporter gene (β-galactosidase) is under the control of multiple cyclic AMP responsive elements. In 96-well plates, histamine was added directly to the cell media followed 5 min later by an addition of forskolin (5 μM final concentration). When appropriate, antagonists were added 10 min prior to agonist addition. After a 6-h incubation at 37° C., the media was aspirated and the cells washed with 200 μL of phosphate-buffered saline followed by a second aspiration. Cells were lysed with 25 μL 0.1× assay buffer (10 mM Na-phosphate, pH 8, 0.2 mM MgSO4, 0.01 mM MnCl2) and incubated at rt for 10 min. […] Color was developed using 25 μL of 1 mg/mL substrate solution (chlorophenolred β-D galactopyranoside; Roche Molecular Biochemicals, Indianapolis, Ind.).

T1 sequence (P31645 whole entry): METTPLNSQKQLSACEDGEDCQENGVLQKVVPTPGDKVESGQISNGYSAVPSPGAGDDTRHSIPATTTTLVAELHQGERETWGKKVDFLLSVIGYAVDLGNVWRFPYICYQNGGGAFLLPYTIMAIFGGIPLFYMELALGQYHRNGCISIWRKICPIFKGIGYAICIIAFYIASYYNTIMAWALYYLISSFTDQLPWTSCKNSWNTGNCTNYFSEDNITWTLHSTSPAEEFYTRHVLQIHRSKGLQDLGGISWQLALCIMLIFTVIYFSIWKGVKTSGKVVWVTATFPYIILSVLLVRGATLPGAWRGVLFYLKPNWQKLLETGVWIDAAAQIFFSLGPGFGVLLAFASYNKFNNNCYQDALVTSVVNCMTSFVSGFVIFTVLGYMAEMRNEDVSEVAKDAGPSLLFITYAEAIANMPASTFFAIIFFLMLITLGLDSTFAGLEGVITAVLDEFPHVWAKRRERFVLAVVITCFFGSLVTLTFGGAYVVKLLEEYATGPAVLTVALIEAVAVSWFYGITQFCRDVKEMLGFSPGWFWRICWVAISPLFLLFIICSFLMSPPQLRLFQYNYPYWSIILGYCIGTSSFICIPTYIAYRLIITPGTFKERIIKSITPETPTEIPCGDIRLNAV

SMILES	Ki (human SERT)	Ki (Rat SERT)	Ki (human H3 receptor [1])	pA2 (human H3 receptor [2])	Kb (human H3 receptor [2]; read-out: pA2 (converted))
CNCc1cc(C#CCCN2CCSCC2)ccc1Oc1ccc(Cl)c(Cl)c1 [Example 26, [2-(3,4-Dichloro-phenoxy)-5-(4-thiomorpholin-4-yl-but-1-ynyl)-benzyl]-methyl-amine]	6.7 nM	5.7 nM	13 nM	–	–
CNCc1cc(C#CCCN2CCOCC2)ccc1Oc1ccc(Cl)c(Cl)c1 [Example 1, [2-(3,4-Dichloro-phenoxy)-5-(4-morpholin-4-yl-but-1-ynyl)-benzyl]-methyl-amine]	1.8 nM	2.4 nM	11 nM	–	–
CNCc1cc(C#CCCN2CCCN(C(C)C)CC2)ccc1Oc1ccc(SC)cc1 [Example 20, [5-[4-(4-Isopropyl-[1,4]diazepan-1-yl)-but-1-ynyl]-2-(4-methylsulfanyl-phenoxy)-benzyl]-methyl-amine]	3.6 nM	0.7 nM	93 nM	–	–
CNCc1cc(CCCCN2CCN(C3CC3)CC2)ccc1Oc1ccc(SC)cc1 [Example 32, [5-[4-(4-Cyclopropyl-piperazin-1-yl)-butyl]-2-(4-methylsulfanyl-phenoxy)-benzyl]-methyl-amine]	2 nM	0.6 nM	4.7 nM	–	–
CNCc1cc(C#CCCNC2CC2)ccc1Oc1ccc(SC)cc1 [Example 14, Cyclopropyl-{4-[3-methylaminomethyl-4-(4-methylsulfanyl-phenoxy)-phenyl]-but-3-ynyl}-amine]	12 nM	0.3 nM	17 nM	–	–
CNCc1cc(C#CCCN(C)C2CC2)ccc1Oc1ccc(SC)cc1 [Example 16, Cyclopropyl-methyl-{4-[3-methylaminomethyl-4-(4-methylsulfanyl-phenoxy)-phenyl]-but-3-ynyl}-amine]	1.1 nM	1.3 nM	6.1 nM	9.10	–
CNCc1cc(C#CCCN2CCOCC2)ccc1Sc1ccc(Cl)cc1 [Example 31, [2-(4-Chloro-phenylsulfanyl)-5-(4-morpholin-4-yl-but-1-ynyl)-benzyl]-methyl-amine]	–	1 nM	32 nM	–	–
CNCc1cc(C#CCCN2CCOCC2)ccc1Oc1ccc(C)nc1 [Example 24, Methyl-[2-(6-methyl-pyridin-3-yloxy)-5-(4-morpholin-4-yl-but-1-ynyl)-benzyl]-amine]	5 nM	1.9 nM	4 nM	–	–
CNCc1cc(C#CCCN2CCN(C3CC3)CC2)ccc1Oc1ccc(SC)cc1 [Example 13, [5-[4-(4-Cyclopropyl-piperazin-1-yl)-but-1-ynyl]-2-(4-methylsulfanyl-phenoxy)-benzyl]-methyl-amine]	3.5 nM	2 nM	52 nM	–	–
Clc1ccc(Oc2ccc(C#CCCN3CCOCC3)cc2CNC2CC2)cc1 [Example 22, [2-(4-Chloro-phenoxy)-5-(4-morpholin-4-yl-but-1-ynyl)-benzyl]-cyclopropyl-amine]	–	5 nM	10 nM	–	–
CNCc1cc(C#CCCN2CCOCC2)ccc1Oc1ccc(F)cc1Cl [Example 28, [2-(2-Chloro-4-fluoro-phenoxy)-5-(4-morpholin-4-yl-but-1-ynyl)-benzyl]-methyl-amine]	3.6 nM	3.4 nM	6 nM	8.78	–
CNCc1cc(C#CCCN2CCOCC2)ccc1Oc1cccnc1 [Example 21, Methyl-[5-(4-morpholin-4-yl-but-1-ynyl)-2-(pyridine-3-yloxy)-benzyl]-amine]	–	7 nM	2 nM	–	–
CNCc1cc(C#CCCN2CCOCC2)ccc1Sc1cc(C(F)(F)F)ccn1 [Example 36, Methyl-[5-(4-morpholin-4-yl-but-1-ynyl)-2-(4-trifluoromethyl-pyridin-2-ylsulfanyl)-benzyl]-amine]	–	32 nM	190 nM	–	–
CNCc1cc(C#CCCN2CCOCC2)ccc1Oc1cccc(F)c1 [Example 8, [2-(3-Fluoro-phenoxy)-5-(4-morpholin-4-yl-but-1-ynyl)-benzyl]-methyl-amine]	24 nM	10 nM	3 nM	8.45	–
CNCc1cc(C#CCCN2CCN(C(C)C)C(=O)C2)ccc1Oc1ccc(SC)cc1 [Example 25, 1-Isopropyl-4-{4-[3-methylaminomethyl-4-(4-methylsulfanyl-phenoxy)-phenyl]-but-3-ynyl}-piperazin-2-one]	1.2 nM	1 nM	1870 nM	–	–
CNCc1cc(C#CCCN2CCOCC2)ccc1Oc1cccc(Cl)c1 [Example 12, [2-(3-Chloro-phenoxy)-5-(4-morpholin-4-yl-but-1-ynyl)-benzyl]-methyl-amine]	7.3 nM	3 nM	3 nM	8.58	–
CNCc1ccc(C#CCCN2CCOCC2)cc1Oc1ccc(SC)cc1 [Example 37, Methyl-[2-(4-methylsulfanyl-phenoxy)-4-(4-morpholin-4-yl-but-1-ynyl)-benzyl]-amine]	3.4 nM	1.8 nM	423 nM	–	–
CNCc1cc(C#CCCN2CCSCC2)ccc1Oc1ccc(SC)cc1 [Example 9, Methyl-[2-(4-methylsulfanyl-phenoxy)-5-(4-thiomorpholin-4-yl-but-1-ynyl)-benzyl]-amine]	2.5 nM	0.9 nM	5.4 nM	–	–
CNCc1cc(C#CCCNC2CC2)ccc1Oc1ccc(Cl)c(Cl)c1 [Example 15, Cyclopropyl-{4-[4-(3,4-dichloro-phenoxy)-3-methylaminomethyl-phenyl]-but-3-ynyl}-amine]	1.4 nM	1.8 nM	17 nM	–	–
CNCc1cc(C#CCCN2CCOCC2)ccc1Oc1ccc(C(F)(F)F)cc1 [Example 7, Methyl-[5-(4-morpholin-4-yl-but-1-ynyl)-2-(4-trifluoromethyl-phenoxy)-benzyl]-amine]	2.7 nM	2 nM	7.3 nM	7.90	–
CNCc1cc(C#CCCN2CCOCC2)ccc1Oc1ccccc1 [Example 6, Methyl-[5-(4-morpholin-4-yl-but-1-ynyl)-2-phenoxy-benzyl]-amine]	30 nM	11 nM	–	–	–
CNCc1cc(CCCCN2CCN(C(C)C)CC2)ccc1Oc1ccc(SC)cc1 [Example 33, [5-[4-(4-Isopropyl-piperazin-1-yl)-butyl]-2-(4-methylsulfanyl-phenoxy)-benzyl]-methyl-amine]	1.4 nM	0.4 nM	5.2 nM	–	–
CNCc1cc(C#CCCN2CCOCC2)ccc1Oc1ccccn1 [Example 30, Methyl-[5-(4-morpholin-4-yl-but-1-ynyl)-2-(pyridine-2-yloxy)-benzyl]-amine]	–	200 nM	6 nM	–	3.16 nM
CNCc1cc(CCCCN2CCSCC2)ccc1Oc1ccc(SC)cc1 [Example 34, Methyl-[2-(4-methylsulfanyl-phenoxy)-5-(4-thiomorpholin-4-yl-butyl)-benzyl]-amine]	1.9 nM	0.9 nM	9.7 nM	–	–
CSc1ccc(Oc2ccc(C#CCCN3CCCCC3)cc2CN(C)C(=O)OC(C)(C)C)cc1 [Example 35, Methyl-[2-(4-methylsulfanyl-phenoxy)-5-(4-piperidin-1-yl-but-1-ynyl)-benzyl]-carbamic acid tert-butyl ester]	–	24 nM	46 nM	–	–
CNCc1cc(C#CCCN2CCNC(=O)C2)ccc1Oc1ccc(SC)cc1 [Example 19, 4-{4-[3-Methylaminomethyl-4-(4-methylsulfanyl-phenoxy)-phenyl]-but-3-ynyl}-piperazin-2-one]	1.6 nM	0.4 nM	864 nM	–	–
CNCc1cc(C#CCCN2CCC(F)CC2)ccc1Oc1ccc(Cl)c(Cl)c1 [Example 29, {2-(3,4-Dichloro-phenoxy)-5-[4-(4-fluoro-piperidin-1-yl)-but-1-ynyl]-benzyl}-methyl-amine]	27 nM	2.1 nM	14 nM	–	–
CNCc1cc(C#CCCN(C2CC2)C2CC2)ccc1Oc1ccc(Cl)c(Cl)c1 [Example 17, N,N-Dicyclopropyl-{4-[4-(3,4-dichloro-phenoxy)-3-methylaminomethyl-phenyl]-but-3-ynyl}-amine]	–	40 nM	100 nM	–	–
CNCc1cc(C#CCCN2CCN(C(C)C)CC2)ccc1Oc1ccc(SC)cc1 [Example 10, [5-[4-(4-Isopropyl-piperazin-1-yl)-but-1-ynyl]-2-(4-methylsulfanyl-phenoxy)-benzyl]-methyl-amine]	13 nM	0.5 nM	31 nM	–	–
CNCc1cc(C#CCCN(C)C2CC2)ccc1Oc1ccc(Cl)c(Cl)c1 [Example 18, Cyclopropyl-{4-[4-(3,4-dichloro-phenoxy)-3-methylaminomethyl-phenyl]-but-3-ynyl}-methyl-amine]	5.9 nM	6.4 nM	9.7 nM	–	–
